# Entries after “also recorded” stand apart in the source; their conditions may differ. Like-named read-outs stand apart in the source and are kept apart here.
# Columns and labels:
# CF tissues = conditions: including transepithelial transport in vivo; cited from earlier work
# CFPAC cells [1] = assay: Iodide efflux protocol in CFPAC cells; assay type: cell-based, human; conditions: for iodide (anion) efflux: CF pancreatic ductular cells (CFPAC), FIG. 1
# Source text: (§1) The iodide efflux protocol is a conventional test for the existence of anion permeability pathways, including both CFTR (cAMP-activated) and non-CFTR permeability pathways (e.g., Ca^2+-activated Cl^− transport). […] Ionomycin, a Ca^2+ ionophore, is known to activate non-CFTR-type anion efflux pathways in CFPAC cells by increasing intracellular Ca^2+.
# (§2) Epithelial cells in the pancreatic ducts, lung, and colon secrete fluid and electrolytes into the pancreatic ductular lumen, airways and intestinal lumen, respectively. The inability to secrete anions in response to a cAMP-dependent agonist such as forskolin is a hallmark of the CF phenotype. […] Methods: Iodide efflux. Iodide efflux was performed as previously described (Venglarik et al., Am. J. Physiol. 259:C358-C364, 1990, and Drumm et al., Cell 62:1227-1233, 1990) Cells were grown on […] culture dishes, and effluxes were performed when the cells were 80-100% confluent using a phosphate buffered Ringer's solution. Cells were loaded with ^125I (2-5 μCi/ml) for 30 minutes and then washed with PBS to remove extracellular ^125I. Efflux was detected by measuring the radioactivity in the extracellular solution which was changed every 15 seconds. At specific points, compounds were added to the cells. Increases in the rate of efflux after addition of a compound indicates the activation of an anion permeability pathway.
# CFPAC-1 cell monolayers = assay: Short circuit current (ISC) in CFPAC-1 cell monolayers, Ussing chamber; assay type: cell-based, human
# Experimental: FIG 4. Cl^- secretion in CFPAC-1 cells. CFPAC-1 cell monolayers were grown to confluency on permeable supports (Millipore) for 10 days. Filters were mounted in an Ussing chamber, and short circuit current measurement was carried out as previously described ([…] and Dawson, Am. J. Physiol. 251:[…]-[…], 1986). […] The compounds were screened using different concentrations of drugs and adding them to alternate surfaces of the filters (mucosal; serosal; mucosal and serosal). The effects of forskolin (10 μM), UTP (100 μM) CPX (100 μm) and duramycin (5 μm) were also studied. […] Explants of CF nasal polyps (primary airway epithelial cells) and control, non-CF colonic epithelial cells (T84) containing wild-type CFTR were also studied. […] In other words, these experiments raise the possibility that Cl^- secretion effects of drugs such as adenosine, milrinone, IBMX, or forskolin might be increased by compounds employed in the present invention by a conjoint therapy treatment. […] The ISC occurs after mucosal, but not serosal addition of the compound.
# ΔF508 CFTR = molecular target: T1, ΔF508 CFTR (Homo sapiens, UniProt P13569, DEL508-508); conditions: cited from earlier work
# T1 construct: host or cells: CFPAC and IB3-1 (endogenous mutant CFTR); NIH 3T3 (after expression of the ΔF508 protein)
# [2] = system: primary airway cells taken from a CF patient; assay: Iodide efflux protocol in primary airway cells taken from a CF patient; assay type: cell-based, human; conditions: FIG. 2
# Experimental: as §2
# CFPAC cells [3] = assay: Cell proliferation assay (Cell titer 96 kit); assay type: cell-based, human
# Experimental: (§3) Proliferation was measured as in Hughes et al., Tumor specific killing with high bystander toxicity using the human tyrosinase promoter to express the E. coli PNP gene, Cancer Research 55: 3339-3345, 1995 and Parker et al., In vivo gene therapy of cancer with E. coli purine nucleoside phosphorylase, Human Gene Therapy, 1997 (in press) using a commercially available kit (Cell titer 96 kit, Promega) and carried out according to manufacturer's protocol. 20 μm 2931 activates Cl^− secretion in CF cells within 5 minutes. […] (FIG. 3A) cAMP levels were tested using the cAMP Immunoassay kit (Cayman) according to manufacturer's protocol.
# mouse intestine = assay: ISC across mouse intestine (colon sections) in Ussing chambers
# Experimental: Small sections of mouse colon from both wild-type and CF knockout mice were mounted in Ussing chambers, and ISC measurements were recorded as described above. Both mucosal and serosal surfaces were bathed in regular Ringer's solution, and TTX (1.54×10^−3 μM) was added to the serosal side of the tissue. After a steady-state had been obtained, amiloride (10^−4 M) was added to the mucosal surface. Both sides were then bathed with regular Ringer's. A Cl gradient was established by bathing the mucosal surface with a 6 mM Cl^− solution. 5-diazoimidazol-4-carboxylic acid n-octyl ester (100 μM) was added first to the mucosal and then the serosal surface of the mounted tissue (FIG. 9).
# [4] = system: T84 colonic epithelial cells; assay: Short circuit current (ISC) in T84 colonic epithelial cell monolayers; assay type: cell-based, human; conditions: with 10 μM forskolin
# Experimental: FIG 4. Cl^- secretion in CFPAC-1 cells. CFPAC-1 cell monolayers were grown to confluency on permeable supports (Millipore) for 10 days. Filters were mounted in an Ussing chamber, and short circuit current measurement was carried out as previously described ([…] and Dawson, Am. J. Physiol. 251:[…]-[…], 1986). Filters were bathed in Ringer's solution (in mM: 145 Na^+, 5 K^+, 124.8 Cl^-, 1.2 Ca^2+, 1.2 Mg^2+, 25 HCO3-, 4.2 PO4, 10 glucose; pH=7.4) on the serosal surface and in a 6 mM Cl^- Ringer's solution (118.8 mM of Cl^- was replaced by the impermeant anion gluconate) on the mucosal surface. The compounds were screened using different concentrations of drugs and adding them to alternate surfaces of the filters (mucosal; serosal; mucosal and serosal). The effects of forskolin (10 μM), UTP (100 μM) CPX (100 μm) and duramycin (5 μm) were also studied. […] Explants of CF nasal polyps (primary airway epithelial cells) and control, non-CF colonic epithelial cells (T84) containing wild-type CFTR were also studied. […] In other words, these experiments raise the possibility that Cl^- secretion effects of drugs such as adenosine, milrinone, IBMX, or forskolin might be increased by compounds employed in the present invention by a conjoint therapy treatment. […] The ISC occurs after mucosal, but not serosal addition of the compound.
# cellular cAMP = assay: cAMP Immunoassay kit, cellular cAMP levels; assay type: cell-based, human; conditions: same conditions that stimulate anion transport, FIG. 3
# Experimental: as §3
# T84 cells = assay: Iodide efflux protocol in T84 colonic epithelial cells; assay type: cell-based, human; conditions: T84 cells expressing high levels of CFTR
# Source text: as §1, §2
# [5] = 100 μM, serosal-mucosal Cl- gradient
# T1 sequence (P13569 with tags, fused parts or gaps DEL508-508): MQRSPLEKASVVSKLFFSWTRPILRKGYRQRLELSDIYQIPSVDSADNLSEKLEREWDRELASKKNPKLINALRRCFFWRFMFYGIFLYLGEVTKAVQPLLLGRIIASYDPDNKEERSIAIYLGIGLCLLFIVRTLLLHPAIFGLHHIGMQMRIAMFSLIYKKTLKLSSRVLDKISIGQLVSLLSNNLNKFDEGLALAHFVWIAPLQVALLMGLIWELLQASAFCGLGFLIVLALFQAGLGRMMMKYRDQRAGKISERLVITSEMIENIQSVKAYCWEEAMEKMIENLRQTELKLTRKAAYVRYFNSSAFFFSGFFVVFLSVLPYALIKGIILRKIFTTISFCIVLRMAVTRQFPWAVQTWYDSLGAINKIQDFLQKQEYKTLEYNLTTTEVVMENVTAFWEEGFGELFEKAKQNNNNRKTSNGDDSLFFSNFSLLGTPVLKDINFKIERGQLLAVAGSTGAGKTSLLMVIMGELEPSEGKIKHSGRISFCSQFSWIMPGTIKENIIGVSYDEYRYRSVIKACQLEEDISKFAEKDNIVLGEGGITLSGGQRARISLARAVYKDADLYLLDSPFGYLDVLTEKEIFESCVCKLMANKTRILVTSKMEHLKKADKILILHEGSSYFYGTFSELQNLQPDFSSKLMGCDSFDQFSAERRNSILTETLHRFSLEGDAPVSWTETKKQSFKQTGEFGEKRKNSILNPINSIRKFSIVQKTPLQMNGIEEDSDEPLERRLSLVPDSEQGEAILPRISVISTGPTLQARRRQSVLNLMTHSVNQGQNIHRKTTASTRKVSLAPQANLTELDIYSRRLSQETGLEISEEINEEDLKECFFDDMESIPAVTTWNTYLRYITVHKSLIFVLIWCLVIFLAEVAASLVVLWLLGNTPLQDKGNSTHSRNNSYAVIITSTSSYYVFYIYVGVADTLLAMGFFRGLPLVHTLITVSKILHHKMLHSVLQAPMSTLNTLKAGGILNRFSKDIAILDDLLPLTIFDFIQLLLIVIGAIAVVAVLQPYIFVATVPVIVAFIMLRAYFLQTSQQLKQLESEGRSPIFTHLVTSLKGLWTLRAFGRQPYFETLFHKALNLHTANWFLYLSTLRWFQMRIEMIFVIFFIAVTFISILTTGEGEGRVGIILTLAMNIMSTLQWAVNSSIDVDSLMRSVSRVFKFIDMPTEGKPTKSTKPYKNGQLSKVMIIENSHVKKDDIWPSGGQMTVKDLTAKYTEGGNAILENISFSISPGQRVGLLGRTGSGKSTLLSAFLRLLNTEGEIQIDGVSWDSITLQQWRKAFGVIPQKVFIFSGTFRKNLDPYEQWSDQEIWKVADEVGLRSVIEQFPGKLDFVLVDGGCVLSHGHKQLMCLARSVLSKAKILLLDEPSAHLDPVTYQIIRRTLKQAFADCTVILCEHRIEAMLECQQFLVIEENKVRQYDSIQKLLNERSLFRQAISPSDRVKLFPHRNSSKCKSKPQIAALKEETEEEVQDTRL
compound,measurement,setting,value
"Nc1ncnc2c1ncn2[C@@H]1O[C@H](COP(=O)(O)OP(=O)(O)OP(=O)(O)O)[C@@H](O)[C@H]1O [ATP, adenosine triphosphate]",Cl- secretion,CF tissues,shown to activate
"C[C@H](CCC(=O)O)C[C@H](C)C[C@H](C)C(=O)/C=C(\O)[C@H](C)C[C@H](C)C/C=C/[C@@H](C)[C@@H](O)[C@@H](C)[C@@H](O)C[C@@H]1CC[C@@](C)([C@H]2CC[C@@](C)([C@@H](C)O)O2)O1 [Ionomycin, reference compound]",iodide (anion) efflux,CFPAC cells [1],anticipated stimulation of iodide efflux
"CCCn1c(=O)c2[nH]c(C3CCCC3)nc2n(CCC)c1=O [CPX, reference compound]",ISC / transepithelial Cl- secretion,CFPAC-1 cell monolayers; [5],did not suggest strong Cl^− secretion; also recorded: do not mediate Cl^− secretion
same,direction of predominant ISC,CFPAC-1 cell monolayers; [5],opposite to that expected
same,Cl- efflux,ΔF508 CFTR; NIH 3T3 cells after expression of the ΔF508 protein,could be activated
same,Cl- efflux,ΔF508 CFTR; airway cells derived from a CF patient (IB3-1-cell line),could be activated
same,Cl- efflux,ΔF508 CFTR; human CF pancreatic cells (CFPAC-cell line),could be activated
"O=c1ccn([C@@H]2O[C@H](COP(=O)(O)OP(=O)(O)OP(=O)(O)O)[C@@H](O)[C@H]2O)c(=O)[nH]1 [UTP, uridine triphosphate, reference compound]",Cl- secretion,CF tissues,shown to activate
same,ISC / transepithelial Cl- secretion,CFPAC-1 cell monolayers; [5],"small, transient activation; also recorded: smaller, transient effect"
duramycin [reference compound],ISC / transepithelial Cl- secretion,CFPAC-1 cell monolayers; 5 μm,"stronger, although transient, activation"
CCCCCCCCOC(=O)C1=NC=NC1=[N+]=[N-] [5-diazoimidazol-4-carboxylic acid n-octyl ester],induced ISC in presence of BAPTA AM,"CFPAC-1 cell monolayers; BAPTA AM 100 μM, FIG. 7",had no effect
same,potency and duration of effects relative to UTP and CPX,CFPAC-1 cell monolayers; CFPAC cells,more potent and prolonged effects
same,direction of ISC,CFPAC-1 cell monolayers; Cl- gradient reversed (mucosal-to-serosal),could be reversed
same,ISC response,CFPAC-1 cell monolayers; Cl- omitted from mucosal and serosal bathing solutions,much less pronounced
same,ISC effect in presence of acetazolimide,CFPAC-1 cell monolayers; acetazolimide 100 μM,did not inhibit the effect
same,ISC response,"CFPAC-1 cell monolayers; added to apical (mucosal) surface, serosal-to-mucosal Cl- gradient",strong ISC response
same,ISC response,CFPAC-1 cell monolayers; added to basolateral (serosal) surface,not basolateral
same,ISC response in presence of amiloride,CFPAC-1 cell monolayers; amiloride 10 μM on apical surface,did not alter this response
same,duration of activity,"CFPAC-1 cell monolayers; compared with UTP, CPX or duramycin, same conditions, FIG. 8",of longer duration than other drugs
same,ISC activation without imposed gradient,CFPAC-1 cell monolayers; symmetrical Ringer's lactate,still present
same,induced ISC in presence of thapsagargin,"CFPAC-1 cell monolayers; thapsagargin 0.1 μM, FIG. 7",had no effect
same,iodide (anion) efflux,[2],strongly activated
same,proliferation of cells,"CFPAC cells [3]; at concentrations that activate anion efflux, FIG. 3A",allows proliferation of cells
same,effects on cellular proliferation,CFPAC cells [3]; cells grown for 7 days at 20 μm,minimal effects on cellular proliferation
same,ISC activation,"mouse intestine; CFTR knock out (−/−) mice, data not shown",ISC activation is also observed
same,ISC activation,"mouse intestine; normal mice, 100 μM, mucosal surface",activates ISC
same,ISC activation,"mouse intestine; ΔF508 CFTR transgenic mice, 100 μM, mucosal surface",activates ISC
same,time to activation of Cl- secretion,"CFPAC cells [1]; 20 μm, CF cells",≤ 5 min
same,iodide (anion) efflux,CFPAC cells [1],confers a rapid efflux of iodide; also recorded: strongly activated
same,anion efflux after removal of extracellular Ca2+,CFPAC cells [1]; extracellular Ca2+ removed,does not substantially inhibit anion efflux
same,ISC on top of maximal forskolin activation,[4],augmented the maximal ISC activation
same,cellular cAMP,cellular cAMP,does not increase cellular cAMP
same,iodide (anion) efflux,T84 cells,strongly activated

# Source: patent US20020035138A1, “Activating Cl- secretion” (Southern Research Institute, priority 1997, published 2002)
